Key:
Ca^2+ influx in ILC2s = experiment: Calcium signaling (Fluo-4) in purified ILC2s; type: cell-based, mouse; settings: NmU23 added 60 seconds after baseline; small intestine ILC2s
Procedure: Purified ILC2s from the small intestine were cultured with IL-2 and IL-7 (10 ng/mL) and FBS deprived for 6 hours prior to calcium signaling experiments. ILC2s were stained with Fluo-4 Direct Calcium Assay Kit (Thermo Fisher Scientific) according to manufacturer's protocol. Calcium (Ca^2+) influx, represented by the Fluo-4 AM, was recorded over time on a BD Accuri C6 (BD Biosciences) flow cytometer as previously reported^36. The recombinant mouse NmU23 was added 60 seconds after ILC2 baseline recording. Data was represented by the mean values of Ca^2+ influx kinetics between the ILC2 baseline response and the peak of response after recombinant mouse NmU23 addition.

Th2 = experiment: In vitro stimulation of Th2 cells with NmU23, type 2 cytokine gene expression; type: cell-based, mouse; settings: NmU23 100 ng/mL in vitro (FIG. 9f)
Text: FIGS. 9a-9i: FIG. 9a, Nmur1 quantitative RT-PCR analysis in the lungs at day 6 post Nippostrongylus brasiliensis (NB)—infection in lung. Eosinophils (Eo); Mast cells (Mast); Macrophages (Mø); Neutrophils (Neu); naive T cells (T); Innate lymphoid cells type 2 (ILC2). FIG. 9b, NMUR1 expression in human adaptive (CD4 T cells) and innate type 2 lymphocytes ILC2 from blood. FIG. 9c, Type 2 cytokine gene expression in human ILC2 and Th2 after in vitro stimulation with the peptide NmU25. FIG. 9d, Nmur1 expression in lung ILC2 before and after infection (at day 6). FIG. 9e, Nmur1 expression in steady state in Common lymphoid progenitor (CLP); Common helper innate lymphoid progenitor (CHILP), Bone marrow ILC2 progenitor (ILC2P) and Eo, Mast, Mø, Neu, Dendritic cells (DC); naive T cells (T); T-helper 2 cells (Th2); memory T cells, B cells (B), Lamina Propria glial cells (G) and neurons (N). n=3-6. FIG. 9f, Type 2 cytokine gene expression in intestinal ILC2 and Th2 after in vitro stimulation with the peptide NmU23 (100 ng/mL). n=3-6. FIG. 9g, Confocal analysis of intestinal lamina propria. Green: neurons (Ret^GFP); Cyan: KLRG1; red: CD3. […]
Total RNA was extracted using RNeasy micro kit (Qiagen) according to the manufacturer's protocol. RNA concentration was determined using Nanodrop Spectrophotometer (Nanodrop Technologies). Quantitative real-time RT-PCR was performed as previously described^5,8. […]

intestine ILC2 = experiment: Ki67 expression in intestine ILC2 after in vivo administration of NmU23; design: species or system mouse; settings: NmU23 4 g/day during 2 days (FIG. 10b)
Procedure: FIGS. 10a-10d: FIG. 10a, Ki67 expression in intestinal ILC2s after an overnight in vitro stimulation with NmU23 alone (100 ng/mL, Phoenix Pharmaceutical) or NmU23 together with the survival cytokines Interleukin (IL)-2 and/or IL-7 (10 ng/mL). FIG. 10b, Ki67 expression in intestine ILC2 after in vivo administration of NmU23 (4 g/day during 2 days). n=5. FIG. 10c, ILC2-derived type 2 cytokines (IL-5, IL-13 and Amphiregulin (Areg)) in sorted intestine ILC2 after an overnight stimulation with NmU23, mouse recombinant IL-25 or IL-33 (R&D) (10, 50 and 100 ng/mL). Negative control: unstimulated ILC2, Positive control: ILC2 activated with phorbol 12-myristate 13-acetate (PMA, 50 ng/ml) plus ionomycin (500 ng/ml). n=3. FIG. 10d, Dot plots representative of the cytokine production with increasing dose of NmU23, rIL-25 and rIL-33. *P<0.05; **P<0.01; ***P<0.001; ****P<0.0001; ns not significant.

NFAT = NFAT translocation in ILC2 by confocal microscopy; type: cell-based, mouse; settings: NmU23 100 ng/mL, 90 minutes, Lamina Propria ILC2, anti-NFAT2 staining (FIG. 11c)
Procedure: FIGS. 11a-11b: ILC2 were FBS deprived for 2 hours prior to treatment with either (FIG. 11a) 11R-VIVIT (inhibits NFAT activation) (10 μM) or (FIG. 11b) cyclosporin A (CsA, […]). Expression of type 2 cytokines were measured by quantitative RT-PCR (FIGS. 11a,11b). n=3-6. FIG. 11c, Deprivated ILC2 from Lamina Propria were stimulated 90′ with NmU23 (100 ng/mL), fixed, permeabilized and stained with anti-NFAT2 monoclonal antibody (abcam). Cells were analyzed by confocal microscopy. *P<0.05; **P<0.01; ***P<0.001; ****P<0.0001; ns not significant.

In the case of “recombinant mouse Neuromedin U 23 peptide (FKAEYQSPSVGQSKGYFLFRPRN; listed as Mus musculus) [NmU23, NMUR1 agonist neuropeptide, Phoenix pharmaceuticals]”, the “Ca^2+ influx in ILC2s (Fluo-4 AM intensity)” value (Ca^2+ influx in ILC2s) was “immediate and robust Ca^2+ influx”, the “type 2 cytokine gene expression in adaptive T cell counterparts (Th2)” value (Th2) was “unperturbed” and the “ILC2 proliferation as measured by Ki67, in vivo” value (intestine ILC2) was “increased ILC2 proliferation”. For the same substance, the “translocation of NFAT in ILC2” value (NFAT) was “efficient translocation of NFAT from the cytoplasm to the nucleus”.
